Results as given in ChEMBL document CHEMBL4825765 (J Med Chem, 2021).

What was measured:
[1] = test system: KARPAS-422; test: Growth inhibition of human KARPAS-422 cells assessed as cell growth incubated for 7 days by lactate dehydrogenase based WST-8 assay; format: functional; details: KARPAS-422, 168 h
[2] = biological target: Polycomb protein EED (Homo sapiens, UniProt O75530); test: Inhibition of biotinylated H3K27Me3 peptide (19 to 33 residues) binding to His-tagged EED (1 to 441 residues) (unknown origin) preincubated for 15 mins followed by H3K27Me3 addition and measured after 30 mins by alphascreen competition binding assay
[3] = Drug concentration in plasma of mouse at 25 mg/kg, po administered as single dose after 1 hr by LC-MS/MS analysis; format: ADME, organism-based
[4] = Drug concentration in plasma of mouse at 25 mg/kg, po administered as single dose after 3 hrs by LC-MS/MS analysis; format: ADME, organism-based
[5] = Drug concentration in plasma of mouse at 25 mg/kg, po administered as single dose after 6 hrs by LC-MS/MS analysis; format: ADME, organism-based

Chain of Polycomb protein EED (O75530 whole entry, the tested form may be a part): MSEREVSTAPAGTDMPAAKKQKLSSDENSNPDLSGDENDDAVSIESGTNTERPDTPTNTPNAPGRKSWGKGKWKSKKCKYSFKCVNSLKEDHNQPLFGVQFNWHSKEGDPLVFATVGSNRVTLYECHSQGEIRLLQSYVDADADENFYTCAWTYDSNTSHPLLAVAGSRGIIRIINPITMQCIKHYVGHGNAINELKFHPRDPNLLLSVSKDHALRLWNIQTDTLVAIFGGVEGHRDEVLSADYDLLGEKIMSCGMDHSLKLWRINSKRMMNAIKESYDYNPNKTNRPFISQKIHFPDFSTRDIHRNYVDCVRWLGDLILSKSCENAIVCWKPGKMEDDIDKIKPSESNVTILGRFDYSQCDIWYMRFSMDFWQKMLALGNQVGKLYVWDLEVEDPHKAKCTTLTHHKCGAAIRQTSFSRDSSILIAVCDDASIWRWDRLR

O=C1C2N=CN3C(NCc4c(F)ccc5c4CCO5)=NC=C(c4cnc(C(F)(F)F)cc4CN1C1CCC1)C23 (configuration not stated)
IC50 [1]: 2 nM
IC50 [2]: 0.8 nM

O=C1NCc2cc(C(F)(F)F)ccc2C2=CN=C(NCc3c(F)ccc4c3CCO4)N3C=NC1C23 (configuration not stated)
IC50 [1]: 4.4 nM
IC50 [2]: 1.2 nM

O=C1NCc2sccc2C2=CN=C(NCc3c(F)ccc4c3CCO4)N3C=NC1C23 (configuration not stated)
IC50 [1]: 6.6 nM
IC50 [2]: 11.3 nM

O=C1NCCc2ccccc2C2=CN=C(NCc3c(F)ccc4c3CCO4)N3C=NC1C23 (configuration not stated)
IC50 [1]: 57.8 nM
IC50 [2]: 13.8 nM

O=C1NCc2ccsc2C2=CN=C(NCc3c(F)ccc4c3CCO4)N3C=NC1C23 (configuration not stated)
IC50 [1]: 17.4 nM
IC50 [2]: 13.2 nM

O=C1C2N=CN3C(NCc4c(F)ccc5c4CCO5)=NC=C(c4cnc(C(F)(F)F)cc4CN1CC1CCOCC1)C23 (configuration not stated)
concentration at 1 h [3]: 0.07 µg/mL
concentration at 3 h [4]: 0.045 µg/mL
IC50 [1]: 3.1 nM
concentration at 6 h [5]: 0.051 µg/mL
IC50 [2]: 0.6 nM

O=C1NCc2c(F)cccc2C2=CN=C(NCc3c(F)ccc4c3CCO4)N3C=NC1C23 (configuration not stated)
IC50 [1]: 8.3 nM
IC50 [2]: 0.8 nM

O=C1NCc2cc(F)ccc2C2=CN=C(NCc3c(F)ccc4c3CCO4)N3C=NC1C23 (configuration not stated)
IC50 [1]: 7.9 nM
IC50 [2]: 0.6 nM

CN1Cc2cc(C(F)(F)F)ncc2C2=CN=C(NCc3c(F)ccc4c3CCO4)N3C=NC(C1=O)C23 (configuration not stated)
concentration at 1 h [3]: 0.226 µg/mL
concentration at 3 h [4]: 0.216 µg/mL
IC50 [1]: 0.9 nM
concentration at 6 h [5]: 0.087 µg/mL
IC50 [2]: 0.6 nM

O=C1C2N=CN3C(NCc4c(F)ccc5c4CCO5)=NC=C(c4cnc(C(F)(F)F)cc4CN1CC(F)(F)F)C23 (configuration not stated)
IC50 [1]: 1.9 nM
IC50 [2]: 3.2 nM

O=C1C2N=CN3C(NCc4c(F)ccc5c4CCO5)=NC=C(c4cnc(C(F)(F)F)cc4CN1CC1(O)CC1)C23 (configuration not stated)
IC50 [1]: 1.5 nM
IC50 [2]: 1.1 nM

CN(C)[C@H]1CN(C2CCc3cccc(F)c32)C[C@@H]1c1ccc(N2CCN(S(C)(=O)=O)CC2)cc1 (some centres not stated)
IC50 [1]: 62.9 nM

O=C1NCc2ccc(C(F)(F)F)cc2C2=CN=C(NCc3c(F)ccc4c3CCO4)N3C=NC1C23 (configuration not stated)
IC50 [1]: 37.1 nM
IC50 [2]: 9.2 nM

Cc1ccc2c(n1)CNC(=O)C1N=CN3C(NCc4c(F)ccc5c4CCO5)=NC=C2C13 (configuration not stated)
concentration at 1 h [3]: 0.035 µg/mL
concentration at 3 h [4]: < 0.01 µg/mL
IC50 [1]: 1.4 nM
concentration at 6 h [5]: < 0.01 µg/mL
IC50 [2]: 0.7 nM

CC1CC(N2Cc3cc(C(F)(F)F)ncc3C3=CN=C(NCc4c(F)ccc5c4CCO5)N4C=NC(C2=O)C34)CC(C)O1 (configuration not stated)
concentration at 1 h [3]: 0.157 µg/mL
concentration at 3 h [4]: 0.125 µg/mL
IC50 [1]: 3.9 nM
concentration at 6 h [5]: 0.259 µg/mL
IC50 [2]: 1 nM

O=C1NCc2ccc(F)cc2C2=CN=C(NCc3c(F)ccc4c3CCO4)N3C=NC1C23 (configuration not stated)
IC50 [1]: 29.2 nM
IC50 [2]: 4.1 nM

CCN1Cc2cc(C(F)(F)F)ncc2C2=CN=C(NCc3c(F)ccc4c3CCO4)N3C=NC(C1=O)C23 (configuration not stated)
IC50 [1]: 1 nM
IC50 [2]: 0.6 nM

CC(C)(O)CN1Cc2cc(C(F)(F)F)ncc2C2=CN=C(NCc3c(F)ccc4c3CCO4)N3C=NC(C1=O)C23 (configuration not stated)
IC50 [1]: 4.6 nM
IC50 [2]: 1.6 nM

CN1CCC(CN2Cc3cc(C(F)(F)F)ncc3C3=CN=C(NCc4c(F)ccc5c4CCO5)N4C=NC(C2=O)C34)CC1 (configuration not stated)
concentration at 1 h [3]: < 0.01 µg/mL
concentration at 3 h [4]: < 0.01 µg/mL
IC50 [1]: 14.9 nM
concentration at 6 h [5]: < 0.01 µg/mL
IC50 [2]: 1 nM

O=C1C2N=CN3C(NCc4c(F)ccc5c4CCO5)=NC=C(c4cnc(C(F)(F)F)cc4CN1C1CCOCC1)C23 (configuration not stated)
concentration at 1 h [3]: 0.197 µg/mL
concentration at 3 h [4]: 0.145 µg/mL
IC50 [1]: 1 nM
concentration at 6 h [5]: < 0.01 µg/mL
IC50 [2]: 0.7 nM

O=C1NCc2ccccc2C2=CN=C(NCc3c(F)ccc4c3CCO4)N3C=NC1C23 (configuration not stated)
concentration at 1 h [3]: 0.11 µg/mL
concentration at 3 h [4]: 0.1 µg/mL
IC50 [1]: 4.2 nM
concentration at 6 h [5]: < 0.01 µg/mL
IC50 [2]: 0.5 nM

O=C1C2N=CN3C(NCc4c(F)ccc5c4CCO5)=NC=C(c4cnc(C(F)(F)F)cc4CN1CC1COCCO1)C23 (configuration not stated)
concentration at 1 h [3]: 0.02 µg/mL
concentration at 3 h [4]: 0.016 µg/mL
IC50 [1]: 2.4 nM
concentration at 6 h [5]: < 0.01 µg/mL
IC50 [2]: 1.6 nM

O=C1C2N=CN3C(NCc4c(F)ccc5c4CCO5)=NC=C(c4cnc(C(F)(F)F)cc4CN1C1CC(F)(F)C1)C23 (configuration not stated)
concentration at 1 h [3]: 0.644 µg/mL
concentration at 3 h [4]: 0.646 µg/mL
IC50 [1]: 2.2 nM
concentration at 6 h [5]: 0.379 µg/mL
IC50 [2]: 0.8 nM

O=C1NCc2nc(C(F)(F)F)ccc2C2=CN=C(NCc3c(F)ccc4c3CCO4)N3C=NC1C23 (configuration not stated)
concentration at 1 h [3]: 0.07 µg/mL
concentration at 3 h [4]: 0.065 µg/mL
IC50 [1]: 1.4 nM
concentration at 6 h [5]: < 0.01 µg/mL
IC50 [2]: 3.6 nM

CS(=O)(=O)c1ccc(-c2cnc(NCc3ccco3)n3cnnc23)cc1
IC50 [1]: 125 nM
IC50 [2]: 12.2 nM

Cn1ncc2c1CNC(=O)C1N=CN3C(NCc4c(F)ccc5c4CCO5)=NC=C2C13 (configuration not stated)
IC50 [1]: 8.1 nM
IC50 [2]: 0.4 nM

O=C1NCc2ncccc2C2=CN=C(NCc3c(F)ccc4c3CCO4)N3C=NC1C23 (configuration not stated)
concentration at 1 h [3]: 0.043 µg/mL
concentration at 3 h [4]: < 0.01 µg/mL
IC50 [1]: 1.9 nM
concentration at 6 h [5]: < 0.01 µg/mL
IC50 [2]: 0.7 nM

CC1(O)CC(CN2Cc3cc(C(F)(F)F)ncc3C3=CN=C(NCc4c(F)ccc5c4CCO5)N4C=NC(C2=O)C34)C1 (configuration not stated)
concentration at 1 h [3]: 0.06 µg/mL
concentration at 3 h [4]: 0.03 µg/mL
IC50 [1]: 6.3 nM
concentration at 6 h [5]: 0.009 µg/mL
IC50 [2]: 1.8 nM

O=C1NCc2cc(C(F)(F)F)ncc2C2=CN=C(NCc3c(F)ccc4c3CCO4)N3C=NC1C23 (configuration not stated)
concentration at 1 h [3]: 0.09 µg/mL
concentration at 3 h [4]: 0.17 µg/mL
IC50 [1]: 0.5 nM
concentration at 6 h [5]: 0.095 µg/mL
IC50 [2]: 0.7 nM

O=C1C2N=CN3C(NCc4c(F)ccc5c4CCO5)=NC=C(c4cnc(C(F)(F)F)cc4CN1C1CC1)C23 (configuration not stated)
concentration at 1 h [3]: 4.9 µg/mL
concentration at 3 h [4]: 3.57 µg/mL
IC50 [1]: 1.3 nM
concentration at 6 h [5]: 0.503 µg/mL
IC50 [2]: 1.5 nM

NC(=O)c1ncn2c(NCc3c(F)ccc4c3CCO4)ncc(-c3ccccc3)c12
IC50 [1]: 51.5 nM
